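Protocol summary: plate cells (96-well), add compound at 5 concentrations, incubate 48 h, interpolate endpoints linearly. GI50 = concentration required for 50% inhibition of growth. TGI denotes the concentration required for complete inhibition of growth.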
system: HCT-116 colon; experiment: growth of human tumour cells (NCI), 48 h

| Structure (SMILES) | TGI [µM] | GI50 [µM] |
| --- | --- | --- |
| COc1cc(/C=N\O[Si](C)(C)C(C)(C)C)ccc1O[Si](C)(C)C(C)(C)C | > 100 |  |
| COc1cc2c(cc1OC)C1Cc3cc(OC)c(OC)cc3N1CC2 (centres undefined) | > 100 |  |
| O=C(NNc1cnccn1)c1nc2cc(F)ccc2n2cccc12 | > 100 | 0.46 |
| C=C1C(=O)OC2C1CC(OC(C)=O)/C(C)=C/CCC1(C)OC21 (centres undefined) | > 100 |  |
| COc1cc(/C=C/C(=O)C(C(=O)/C=C/c2ccc(OC(=O)CCNC34CC5CC(CC(C5)C3)C4)c(OC)c2)C(=O)CCNC23CC4CC(CC(C4)C2)C3)ccc1OC(=O)CCNC12CC3CC(CC(C3)C1)C2 (centres undefined) | 10.7 | 2.94 |
| O=C1/C(=C/N2N=C(c3ccc4ccccc4c3)CC2c2ccccc2O)SC(=S)N1c1cccnc1 (centres undefined) | > 100 | 0.33 |
| CCOC(=O)C1=C(Nc2ccc(Br)cc2)OCC1=O | > 100 |  |
| CC(=O)[CH-]C(=O)c1ccccc1.CC(=O)[CH-]C(=O)c1ccccc1.O=S(=O)([O-])c1cc([O-])c2c([O-])cc(S(=O)(=O)[O-])cc2c1.[Na+].[Ti+4] | > 100 | > 100 |
| NCCN.O=C([O-])[O-].O=C([O-])[O-].[Co+3].[K+] | > 100 | > 100 |
| C1=NC(N(Cc2ccccc2)Cc2ccccc2)N(Cc2ccccc2)N1 (centres undefined) | 21.3 |  |
| NC(=O)CNc1ccc([As]=[As]c2ccc(NCC(N)=O)cc2)cc1 (centres undefined) | 16.3 | 3.64 |

system: IGROV1 ovarian; experiment: growth of human tumour cells (NCI), 48 h

| Structure (SMILES) | TGI [µM] | GI50 [µM] |
| --- | --- | --- |
| Cc1ccc(N2C(=O)N(c3ccc(C)cc3)C3(SC=NN3C)C2=O)cc1 (centres undefined) | > 100 |  |
| O=C1c2ccc3c4ccccc4n(-c4ccccc4)c3c2C(=O)N1c1ccc(Cl)cc1 | > 100 |  |
| Cc1ccc2c(c1-c1ccccc1)C(=O)OC2 | > 100 |  |
| CCC[CH2][Sn]1([CH2]CCC)[O]CC(COc2c(Cl)cc(Cl)cc2Cl)[O]1 (centres undefined) | 3.46 | 1.8 |
| NC(CCc1ncc(C(=O)O)s1)C(=O)O (centres undefined) | > 100 |  |
| COc1cc2c3c(n(CCCN(CCO)CCO)c(=O)c2cc1OC)-c1cc2c(cc1C3=O)OCO2 | > 100 |  |
| CNCCn1c(=O)c2cc(OC)c(OC)cc2c2cnc3cc4c(cc3c21)OCO4 | 1.76 | 0.0276 |
| COc1cc(-c2nnc3n2NC=C(C(=O)O)S3)cc(OC)c1OC | > 100 |  |
| C[P+](C)(C)c1ccccc1 | > 100 |  |
| O=C1c2ccccc2C(=O)N1C/C=N/NS(=O)(=O)c1ccc(Br)cc1 | > 100 |  |
| COc1ccc2c(c1)C(C)Cc1c(ncnc1-n1cnc3ccccc31)N2C (centres undefined) | 29.1 | 1.41 |
| NC(=O)c1cn(Cc2ccccc2)c(=O)n1Cc1ccccc1 | > 100 |  |
| CCOC(=O)C(C)(c1c(C)[nH]c2ccccc12)c1c(C)[nH]c2ccccc12 | 51.3 |  |
| Cc1c(Cl)cccc1NC(=O)c1cccc([N+](=O)[O-])c1O | > 83.2 |  |
| CC1COS(=O)O1 (centres undefined) | > 100 |  |
| CC1CCC(C(C)(C)c2ccccc2)C(=O)C1 (centres undefined) | > 100 |  |
| O=C1CC2CCN(C(=O)c3ccccc3)CC2CCN1 (centres undefined) | > 100 |  |
| N#CC(C#N)=C1CCCOc2c1ccc1ccccc21 | > 100 | > 100 |
| CCc1nc(Cl)c(Cl)c(Cl)n1 | > 100 |  |

| Structure (SMILES) | TGI [µM] | GI50 [µM] |
| --- | --- | --- |
| O=C1C=CC(=CC=C2C=CN(CCCCCCCCCCC(=O)NCCCCCCCCCCCC(=O)O)C=C2)C=C1 | > 100 |  |
| N#Cc1c(-c2ccco2)cc(-c2ccc(N)cc2)[nH]c1=O | > 100 |  |
| C=CCC1(C)CCCCC1(O)CS(=O)c1ccccc1 (centres undefined) | > 100 |  |
| C1COCCSC2=C(SCCO1)SC(=C1SC3=C(SCCOCCOCCS3)S1)S2 | > 100 |  |
| COc1cc(/C=N\O[Si](C)(C)C(C)(C)C)ccc1O[Si](C)(C)C(C)(C)C | > 100 |  |
| CC12CCC(=O)N1c1cccnc1N2 (centres undefined) | > 100 |  |
| COc1cc2c(cc1OC)C1Cc3cc(OC)c(OC)cc3N1CC2 (centres undefined) | > 100 |  |
| O=C(NNc1cnccn1)c1nc2cc(F)ccc2n2cccc12 | > 100 | 0.503 |
| C=C1C(=O)OC2C1CC(OC(C)=O)/C(C)=C/CCC1(C)OC21 (centres undefined) | > 100 |  |
| O=C1/C(=C/N2N=C(c3ccc4ccccc4c3)CC2c2ccccc2O)SC(=S)N1c1cccnc1 (centres undefined) | > 100 | 1.47 |
| CCOC(=O)C1=C(Nc2ccc(Br)cc2)OCC1=O | > 100 |  |
| CCOc1ccc(N=Cc2c3ccccc3nc3ccccc23)cc1 | > 100 |  |
| Nc1ccc(C2=N/C(=C\c3cccc(N)c3)C(=O)O2)cc1 | > 100 |  |
| CC(=O)[CH-]C(=O)c1ccccc1.CC(=O)[CH-]C(=O)c1ccccc1.O=S(=O)([O-])c1cc([O-])c2c([O-])cc(S(=O)(=O)[O-])cc2c1.[Na+].[Ti+4] | > 100 | > 100 |
| Cc1cc(NCCCCNc2ccnc3cc(Cl)ccc23)nc(Nc2ccc(C(=O)N3CCCCC3)cc2)n1 | 6.22 | 2.27 |
| NCCN.O=C([O-])[O-].O=C([O-])[O-].[Co+3].[K+] | > 100 | > 100 |
| C1=NC(N(Cc2ccccc2)Cc2ccccc2)N(Cc2ccccc2)N1 (centres undefined) | 33.6 |  |
| NC(=O)CNc1ccc([As]=[As]c2ccc(NCC(N)=O)cc2)cc1 (centres undefined) | 23.8 | 3.37 |

system: M14 melanoma; experiment: growth of human tumour cells (NCI), 48 h

| Structure (SMILES) | TGI [µM] | GI50 [µM] |
| --- | --- | --- |
| CCc1cccc(C)c1NC(=O)CC1C(=O)Nc2ccccc2S1=O (centres undefined) | > 100 |  |
| Cc1ccc(N2C(=O)N(c3ccc(C)cc3)C3(SC=NN3C)C2=O)cc1 (centres undefined) | > 100 |  |
| O=C1c2ccc3c4ccccc4n(-c4ccccc4)c3c2C(=O)N1c1ccc(Cl)cc1 | > 100 |  |
| Cc1ccc2c(c1-c1ccccc1)C(=O)OC2 | > 100 |  |
| CCC[CH2][Sn]1([CH2]CCC)[O]CC(COc2c(Cl)cc(Cl)cc2Cl)[O]1 (centres undefined) | 3.13 | 1.72 |
| NC(CCc1ncc(C(=O)O)s1)C(=O)O (centres undefined) | > 100 |  |
| CSc1ccc2c(cc1=O)[C@@H](NC(=O)c1cc(O)c(O)c(O)c1)CCc1cc(O)c(O)c(O)c1-2 | 36.6 |  |
| COC(=O)C(=O)CC(=O)c1cccc(OC)c1 | > 100 |  |
| COc1cc2c3c(n(CCCN(CCO)CCO)c(=O)c2cc1OC)-c1cc2c(cc1C3=O)OCO2 | 0.17 | < 0.01 |
| CNCCn1c(=O)c2cc(OC)c(OC)cc2c2cnc3cc4c(cc3c21)OCO4 | 1.36 | < 0.01 |
| COc1cc(-c2nnc3n2NC=C(C(=O)O)S3)cc(OC)c1OC | > 100 |  |
| C[P+](C)(C)c1ccccc1 | > 100 |  |
| O=C1c2ccccc2C(=O)N1C/C=N/NS(=O)(=O)c1ccc(Br)cc1 | > 100 |  |
| COc1ccc2c(c1)C(C)Cc1c(ncnc1-n1cnc3ccccc31)N2C (centres undefined) | 12.7 | 0.313 |
| NC(=O)c1cn(Cc2ccccc2)c(=O)n1Cc1ccccc1 | > 100 |  |
| CCOC(=O)C(C)(c1c(C)[nH]c2ccccc12)c1c(C)[nH]c2ccccc12 | 29.8 |  |
| Cc1c(Cl)cccc1NC(=O)c1cccc([N+](=O)[O-])c1O | > 78.9 |  |

| Structure (SMILES) | TGI [µM] | GI50 [µM] |
| --- | --- | --- |
| CC1COS(=O)O1 (centres undefined) | > 100 |  |
| CC1CCC(C(C)(C)c2ccccc2)C(=O)C1 (centres undefined) | > 100 |  |
| O=C1CC2CCN(C(=O)c3ccccc3)CC2CCN1 (centres undefined) | > 100 |  |
| N#CC(C#N)=C1CCCOc2c1ccc1ccccc21 | > 100 | > 100 |
| CCc1nc(Cl)c(Cl)c(Cl)n1 | > 100 |  |
| O=C1C=CC(=CC=C2C=CN(CCCCCCCCCCC(=O)NCCCCCCCCCCCC(=O)O)C=C2)C=C1 | > 100 |  |
| N#Cc1c(-c2ccco2)cc(-c2ccc(N)cc2)[nH]c1=O | > 100 |  |
| C=CCC1(C)CCCCC1(O)CS(=O)c1ccccc1 (centres undefined) | > 100 |  |
| C1COCCSC2=C(SCCO1)SC(=C1SC3=C(SCCOCCOCCS3)S1)S2 | > 100 |  |
| COc1cc(/C=N\O[Si](C)(C)C(C)(C)C)ccc1O[Si](C)(C)C(C)(C)C | > 100 |  |
| CC12CCC(=O)N1c1cccnc1N2 (centres undefined) | > 100 |  |
| COc1cc2c(cc1OC)C1Cc3cc(OC)c(OC)cc3N1CC2 (centres undefined) | 53.4 |  |
| O=C(NNc1cnccn1)c1nc2cc(F)ccc2n2cccc12 | 14.5 | 0.34 |
| C=C1C(=O)OC2C1CC(OC(C)=O)/C(C)=C/CCC1(C)OC21 (centres undefined) | > 100 |  |
| COc1cc(/C=C/C(=O)C(C(=O)/C=C/c2ccc(OC(=O)CCNC34CC5CC(CC(C5)C3)C4)c(OC)c2)C(=O)CCNC23CC4CC(CC(C4)C2)C3)ccc1OC(=O)CCNC12CC3CC(CC(C3)C1)C2 (centres undefined) | 13.9 | 3.51 |
| O=C1C2[C@@H](C(=O)N1c1ccc(Br)cc1)C13C(=CC2([N+](=O)[O-])[C@@H]2C(=O)N(c4ccc(Br)cc4)C(=O)[C@@H]21)c1ccccc1N3c1ccccc1 (some centres undefined) | > 100 |  |
